These results are taken from ChEMBL document CHEMBL6071211, “Invention of VH-937, a Potent HIV-1 Maturation Inhibitor with the Potential for Infrequent Oral Dosing in Humans” (ACS Med Chem Lett, 2024).

Some results are limits rather than exact numbers.

The subject of assay [1] is Human immunodeficiency virus 1. As to the kind of experiment: In vitro antiviral activity against fully replicating HIV1 NL4-3 harboring Gag A364V mutant. It counts as functional, organism-based.
The test system of assay [2] is Human immunodeficiency virus 1. Briefly: In vitro antiviral activity against fully replicating wild type HIV1 NL4-3. It counts as functional, organism-based.
Assay [3] concerns Human immunodeficiency virus 1. Briefly: In vitro antiviral activity against fully replicating HIV1 NL4-3 harboring Gag T332S/V362I/prR41G mutant. It counts as functional, organism-based.
Assay [4] has as its system Human immunodeficiency virus 1. As to the kind of experiment: In vitro antiviral activity against fully replicating wild type HIV1 NL4-3 in presence of human serum. It counts as functional, organism-based.
Assay [5] relates to Human immunodeficiency virus 1. Briefly: Binding affinity to HIV1 Gag A364V mutant assessed as dissociation half life by virus-like particle (VLP) assay.
Setting [6] is: Human immunodeficiency virus 1, NL4-3.

What is called EC50 is the concentration needed to bring the measured effect to its halfway point.

For `C=C(C)[C@@H]1CC[C@]2(NCCN3CCS(=O)(=O)CC3)CC[C@]3(C)[C@H](CC[C@@H]4[C@@]5(C)CC=C(C6=CCC(COc7ccc(C#N)cn7)(C(=O)O)CC6)C(C)(C)[C@@H]5CC[C@]43C)[C@@H]12` (mixture of isomers), the EC50 in assay [1] (setting [6]) was 28.8 nM; in assay [2] (setting [6]), 1.9 nM; in assay [3] (setting [6]) it was 232 nM; in assay [4] (setting [6]) it was 34.3 nM.

On to `C=C(C)[C@@H]1CC[C@]2(NCCN3CCS(=O)(=O)CC3)CC[C@]3(C)[C@H](CC[C@@H]4[C@@]5(C)CC=C(C6=CCC(COc7ccc(Cl)cc7)(C(=O)O)CC6)C(C)(C)[C@@H]5CC[C@]43C)[C@@H]12` (stereo in doubt; 8), for which the EC50 in assay [1] came out at 75.3 nM; in assay [2] it was 29.4 nM; in assay [3] (setting [6]) it was 49.6 nM; in assay [4], 149 nM.

`C=C(C)[C@@H]1CC[C@]2(NCCN3CCS(=O)(=O)CC3)CC[C@]3(C)[C@H](CC[C@@H]4[C@@]5(C)CC=C(C6=CCC(COc7cccc(C#N)n7)(C(=O)O)CC6)C(C)(C)[C@@H]5CC[C@]43C)[C@@H]12` (mixture of isomers): the EC50 is 26.4 nM in assay [1] (setting [6]), 13.9 nM in assay [2] (setting [6]), 15.8 nM in assay [3] (setting [6]) and 15.7 nM in assay [4] (setting [6]).

As to `C=C(C)[C@@H]1CC[C@]2(NCCN3CCS(=O)(=O)CC3)CC[C@]3(C)[C@H](CC[C@@H]4[C@@]5(C)CC=C(C6=CCC(COc7ccc(Cl)cc7)(C(=O)O)CC6)C(C)(C)[C@@H]5CC[C@]43C)[C@@H]12` (stereo in doubt; 9), the EC50 in assay [1] stood at 244 nM; in assay [2], 3.2 nM; in assay [3], 85.3 nM; in assay [4] it was 9.9 nM.

With `C=C(C)[C@@H]1CC[C@]2(NCCN3CCS(=O)(=O)CC3)CC[C@]3(C)[C@H](CC[C@@H]4[C@@]5(C)CC=C(C6=CCC(COc7ncccn7)(C(=O)O)CC6)C(C)(C)[C@@H]5CC[C@]43C)[C@@H]12` (mixture of isomers), the concentration for a half-maximal effect (EC50) in assay [1] (setting [6]) came out at 4.5 nM; in assay [2] (setting [6]), 1.8 nM; in assay [3] (setting [6]), 12.6 nM; in assay [4] (setting [6]) it was 52.1 nM.

With `C=C(C)[C@@H]1CC[C@]2(NCCN3CCS(=O)(=O)CC3)CC[C@]3(C)[C@H](CC[C@@H]4[C@@]5(C)CC=C(C6=CC[C@@](COc7cnccn7)(C(=O)O)CC6)C(C)(C)[C@@H]5CC[C@]43C)[C@@H]12`, the EC50 was found to be 21.4 nM in assay [1] (setting [6]), 2.8 nM in assay [2] (setting [6]), 14.7 nM in assay [3] (setting [6]) and 48.1 nM in assay [4] (setting [6]).

`C=C(C)[C@@H]1CC[C@]2(NCCN3CCS(=O)(=O)CC3)CC[C@]3(C)[C@H](CC[C@@H]4[C@@]5(C)CC=C(C6=CCC(COc7ccc(F)cc7)(C(=O)O)CC6)C(C)(C)[C@@H]5CC[C@]43C)[C@@H]12` (mixture of isomers): the EC50 came out at 21.7 nM in assay [1] (setting [6]), 4.7 nM in assay [2] (setting [6]), 26.5 nM in assay [3] (setting [6]) and 74.5 nM in assay [4] (setting [6]).

In the case of `C=C(C)[C@@H]1CC[C@]2(NCCN3CCS(=O)(=O)CC3)CC[C@]3(C)[C@H](CC[C@@H]4[C@@]5(C)CC=C(C6=CCC(COc7cccc(F)c7)(C(=O)O)CC6)C(C)(C)[C@@H]5CC[C@]43C)[C@@H]12` (mixture of isomers), the EC50 in assay [1] (setting [6]) stood at 55.7 nM; in assay [2] (setting [6]), 8.3 nM; in assay [3] (setting [6]), 34.3 nM; in assay [4] (setting [6]) it was 14.8 nM.

In the case of `C=C(C)[C@@H]1CC[C@]2(NCCN3CCS(=O)(=O)CC3)CC[C@]3(C)[C@H](CC[C@@H]4[C@@]5(C)CC=C(C6=CCC(COc7nccs7)(C(=O)O)CC6)C(C)(C)[C@@H]5CC[C@]43C)[C@@H]12` (mixture of isomers), the EC50 turned out to be 2.4 nM in assay [1] (setting [6]), 3.6 nM in assay [2] (setting [6]), 38.9 nM in assay [3] (setting [6]) and 24.5 nM in assay [4] (setting [6]).

In the case of `C=C(C)[C@@H]1CC[C@]2(NCCN3CCS(=O)(=O)CC3)CC[C@]3(C)[C@H](CC[C@@H]4[C@@]5(C)CC=C(C6=CCC(COc7ccncn7)(C(=O)O)CC6)C(C)(C)[C@@H]5CC[C@]43C)[C@@H]12` (mixture of isomers), the half-maximal effective concentration (EC50) was determined as 10 nM in assay [1] (setting [6]), 1.7 nM in assay [2] (setting [6]), 68.6 nM in assay [3] (setting [6]) and 23.4 nM in assay [4] (setting [6]).

On to `C=C(C)[C@@H]1CC[C@]2(NCCN3CCS(=O)(=O)CC3)CC[C@]3(C)[C@H](CC[C@@H]4[C@@]5(C)CC=C(C6=CC[C@@](CF)(C(=O)O)CC6)C(C)(C)[C@@H]5CC[C@]43C)[C@@H]12` [FIPRAVIRIMAT], for which, in assay [5], the T1/2 was under 1 min. Besides, in assay [4] (setting [6]), the EC50 amounted to 13.9 nM.

Regarding `C=C(C)[C@@H]1CC[C@]2(NCCN3CCS(=O)(=O)CC3)CC[C@]3(C)[C@H](CC[C@@H]4[C@@]5(C)CC=C(C6=CCC(COc7ccccc7Cl)(C(=O)O)CC6)C(C)(C)[C@@H]5CC[C@]43C)[C@@H]12` (mixture of isomers), the EC50 in assay [1] (setting [6]) amounted to 20.1 nM; in assay [2] (setting [6]), 9.7 nM; in assay [3] (setting [6]), 23.1 nM; in assay [4] (setting [6]), 59.7 nM.

On to `C=C(C)[C@@H]1CC[C@]2(NCCN3CCS(=O)(=O)CC3)CC[C@]3(C)[C@H](CC[C@@H]4[C@@]5(C)CC=C(C6=CCC(COc7ccncc7)(C(=O)O)CC6)C(C)(C)[C@@H]5CC[C@]43C)[C@@H]12` (mixture of isomers), for which the EC50 was determined as 34.6 nM in assay [1] (setting [6]), 2.1 nM in assay [2] (setting [6]), 14.2 nM in assay [3] (setting [6]) and 33.3 nM in assay [4] (setting [6]).

For the compound `C=C(C)[C@@H]1CC[C@]2(NCCN3CCS(=O)(=O)CC3)CC[C@]3(C)[C@H](CC[C@@H]4[C@@]5(C)CC=C(C6=CC[C@@](COc7ccccn7)(C(=O)O)CC6)C(C)(C)[C@@H]5CC[C@]43C)[C@@H]12`, the EC50 in assay [1] (setting [6]) came to 7.2 nM; in assay [2] (setting [6]) it was 3.5 nM; in assay [3] (setting [6]), 19.2 nM; in assay [4] (setting [6]), 44.9 nM.

With `C=C(C)[C@@H]1CC[C@]2(NCCN3CCS(=O)(=O)CC3)CC[C@]3(C)[C@H](CC[C@@H]4[C@@]5(C)CC=C(c6ccc(C(=O)O)cc6)C(C)(C)[C@@H]5CC[C@]43C)[C@@H]12`, the T1/2 in assay [5] was under 1 min.

In the case of `C=C(C)[C@@H]1CC[C@]2(NCCN3CCS(=O)(=O)CC3)CC[C@]3(C)[C@H](CC[C@@H]4[C@@]5(C)CC=C(C6=CC[C@@](COc7ncccc7C#N)(C(=O)O)CC6)C(C)(C)[C@@H]5CC[C@]43C)[C@@H]12` [ZEGRUVIRIMAT], the EC50 in assay [1] (setting [6]) worked out at 52.6 nM; in assay [2] (setting [6]) it was 2.5 nM; in assay [3] (setting [6]) it was 5.8 nM; in assay [4] (setting [6]), 41.1 nM.

On to `C=C(C)[C@@H]1CC[C@]2(NCCN3CCS(=O)(=O)CC3)CC[C@]3(C)[C@H](CC[C@@H]4[C@@]5(C)CC=C(C6=CCC(COc7cccnn7)(C(=O)O)CC6)C(C)(C)[C@@H]5CC[C@]43C)[C@@H]12` (mixture of isomers), for which the EC50 in assay [1] (setting [6]) was 3.5 nM; in assay [2] (setting [6]), 2.6 nM; in assay [3] (setting [6]), 47.2 nM; in assay [4] (setting [6]) it was 59.8 nM.
